According to US6869913B1, “Pyridazin-3-one derivatives, their use and intermediates for their production” (Sumitomo Chemical Company, Limited, priority 1995, dated 2005):

What was measured:
Assay type in all cases: in vivo
[1] = system: entireleaf morningglory (Ipomoea hederacea var. integriuscula); assay: Test Example 3: soil surface treatment on upland fields; conditions: 500 g/ha active ingredient; soil surface spray; examined after 19 days
Protocol: (§1) Cylindrical plastic pots of 10 cm in diameter and 10 am in depth were filled with soil, in which the seeds of […] (Ipomoea hederacea var. integriuscula) and velvetleaf (Abutilon theophrash) were sowed. Each of the test compounds listed below was formulated into an emulsifiable concentrate according to Formulation Example 2, which was diluted with water to a prescribed concentration. The dilution was uniformly sprayed over the soil surface in the pots with a sprayer at a volume of 1000 liters per hectare. After the application, the test plants were grown in a greenhouse for 19 days, and the herbicidal activity was examined.

[2] = system: velvetleaf (Abutilon theophrash); assay: as above; conditions: 500 g/ha active ingredient; soil surface spray; examined after 19 days
Protocol: as §1

[3] = system: barnyardgrass (Echinochloa oryzicola); assay: Test Example 4: flooding treatment on paddy fields; conditions: application amount of active ingredient 250 g/ha, examined 19 days after application, index 0 to 5
Protocol: Cylindrical plastic pots of 9 cm in diameter and 11 cm in depth were filled with soil, in which the seeds of barnyardgrass (Echinochloa oryzicola) were sowed. These pots were flooded to form a paddy field, and the test plants were grown in a greenhouse for 7 days. Each of the test compounds listed below was formulated into an emulsifiable concentrate according to Formulation Example 2, which was diluted with water to a prescribed concentration. The dilution was applied to the water surface in the pots at a volume of 50 liters per hectare. After the application, the test plants were grown in the greenhouse for 19 days, and the herbicidal activity was examined.

[4] = system: entireleaf morningglory (Ipomoea hederacea var. integriuscula); assay: Test Example 1: foliar treatment on upland fields; conditions: 500 g/ha active ingredient; foliar spray; examined 19 days after application
Protocol: as §1, with “10 cm” for “10 am”, “were sowed, and the test plants were grown in a greenhouse for 19 days.” for “were sowed.”, “water containing a spreading agent” for “water”, “the foliage of” for “the soil surface in”, “the test plants” for “the pots”, “in the” for “in a”

[5] = system: velvetleaf (Abutilon theophrash); assay: Test Example 1: foliar treatment on upland fields; conditions: 500 g/ha active ingredient; foliar spray; examined 19 days after application
Protocol: as §1, with “10 cm” for “10 am”, “were sowed, and the test plants were grown in a greenhouse for 19 days.” for “were sowed.”, “water containing a spreading agent” for “water”, “the foliage of” for “the soil surface in”, “the test plants” for “the pots”, “in the” for “in a”

[6] = system: barnyardgrass (Echinochloa crus-galli); assay: Test Example 2: foliar treatment on upland fields; set-up: key: rating; 4–5 = excellent activity, 3 or lower = insufficient; conditions: 32 g/ha active ingredient; foliar spray; examined 19 days after application
Description: (§2) The herbicidal activity is excellent when rated at “4” or “5” but insufficient when rated at “3” or lower. The phytotoxicity is no problematic on practical use when rated at “0” or “1” but not allowed when rated at “2” or higher.
(§3) Cylindrical plastic pots of 10 cm in diameter and 10 cm in depth were filled with soil, in which the seeds of barnyardgrass (Echinochloa crus-galli), entireleaf morningglory (Ipomoea hederacea var. integriuscula) and velvetleaf (Abutilon theophrash) were sowed, and the test plants were grown in a greenhouse for 19 days. Each of the test compounds listed below was formulated into an emulsifiable concentrate according to Formulation Example 2, which was diluted with water containing a spreading agent to a prescribed concentration. The dilution was uniformly sprayed over the foliage of the test plants with a sprayer at a volume of 1000 liters per hectare. After the application, the test plants were grown in the greenhouse for 19 days, and the herbicidal activity was examined.

[7] = system: entireleaf morningglory (Ipomoea hederacea var. integriuscula); assay: Test Example 2: foliar treatment on upland fields; set-up: key: rating; 4–5 = excellent activity, 3 or lower = insufficient; conditions: 32 g/ha active ingredient; foliar spray; examined 19 days after application
Description: as §2, §3

[8] = system: velvetleaf (Abutilon theophrash); assay: Test Example 2: foliar treatment on upland fields; set-up: key: rating; 4–5 = excellent activity, 3 or lower = insufficient; conditions: 32 g/ha active ingredient; foliar spray; examined 19 days after application
Description: as §2, §3

Cc1c(C(F)(F)F)cnn(-c2cc(OC(C)C)c(Cl)cc2F)c1=O [Compound 1-476, 2-[2-fluoro-4-chloro-5-isopropoxyphenyl]4-methyl-5-trifluoromethylpyridazin-3-one]
5: Herbicidal activity Entireleaf morningglory [1] | Herbicidal activity Velvetleaf [2] | Herbicidal activity Barnyardgrass [3] | Herbicidal activity Entireleaf morningglory [4] | Herbicidal activity Velvetleaf [5]

O=c1cc(C(F)(F)F)cnn1-c1ccc(Cl)cc1 [Compound 1-332, 2-(4-chlorophenyl)-5-trifluoromethylpyridazin-3-one]
5: Herbicidal activity Entireleaf morningglory [1] | Herbicidal activity Velvetleaf [2] | Herbicidal activity Barnyardgrass [3] | Herbicidal activity Entireleaf morningglory [4] | Herbicidal activity Velvetleaf [5]

COC(=O)C(C)Sc1cc(-n2ncc(C(F)(F)F)cc2=O)c(F)cc1Cl (stereo not drawn) [Compound 1-1221, Methyl 2-{2-chloro-4-fluoro-5-(5-trifluoromethyl-3-pyridazinon-2-yl)phenylthio}propionate]
5: Herbicidal activity Entireleaf morningglory [1] | Herbicidal activity Velvetleaf [2] | Herbicidal activity Barnyardgrass [6] | Herbicidal activity Entireleaf morningglory [7] | Herbicidal activity Velvetleaf [8] | Herbicidal activity Barnyardgrass [3] | Herbicidal activity Entireleaf morningglory [4] | Herbicidal activity Velvetleaf [5]

CCOC(=O)C(C)Sc1cc(-n2ncc(C(F)(F)F)cc2=O)c(F)cc1Cl (stereo not drawn) [Compound 1-1222, Ethyl 2-{2-chloro-4-fluoro-5-(5-trifluoromethyl-3-pyridazinon-2-yl)phenylthio}propionate]
5: Herbicidal activity Entireleaf morningglory [1] | Herbicidal activity Velvetleaf [2] | Herbicidal activity Barnyardgrass [6] | Herbicidal activity Entireleaf morningglory [7] | Herbicidal activity Velvetleaf [8] | Herbicidal activity Barnyardgrass [3] | Herbicidal activity Entireleaf morningglory [4] | Herbicidal activity Velvetleaf [5]

C#CCN1C(=O)COc2cc(F)c(-n3nc(C)c(C(F)(F)F)cc3=O)cc21 [Compound 2-821, 7-fluoro-6-(6-methyl-5-trifluoromethyl-3-pyridazinon-2-yl)-4-propargyl-2H-1,4-benzoxazin-3-one]
5: Herbicidal activity Entireleaf morningglory [1] | Herbicidal activity Velvetleaf [2] | Herbicidal activity Barnyardgrass [6] | Herbicidal activity Entireleaf morningglory [7] | Herbicidal activity Velvetleaf [8] | Herbicidal activity Barnyardgrass [3] | Herbicidal activity Entireleaf morningglory [4] | Herbicidal activity Velvetleaf [5]

CCOC(=O)C(C)Nc1cc(-n2ncc(C(F)(F)F)c(C)c2=O)c(F)cc1Cl (stereo not drawn) [Compound 1-420, Ethyl 2-{2-chloro-4-fluoro-5-(4-methyl-5-trifluoromethyl-3-pyridazinon-2-yl)phenylamino}propionate]
5: Herbicidal activity Entireleaf morningglory [1] | Herbicidal activity Velvetleaf [2] | Herbicidal activity Barnyardgrass [6] | Herbicidal activity Entireleaf morningglory [7] | Herbicidal activity Velvetleaf [8] | Herbicidal activity Barnyardgrass [3] | Herbicidal activity Entireleaf morningglory [4] | Herbicidal activity Velvetleaf [5]

Cc1c(C(F)(F)F)cnn(-c2cc(NS(C)(=O)=O)c(Cl)cc2F)c1=O [Compound 1-367, N-[2-chloro-4-fluoro-5-(4-methyl-5-trifluoromethyl-3-pyridazinon-2-yl)phenyl]methanesulfonamide]
5: Herbicidal activity Entireleaf morningglory [1] | Herbicidal activity Velvetleaf [2] | Herbicidal activity Barnyardgrass [3] | Herbicidal activity Entireleaf morningglory [4] | Herbicidal activity Velvetleaf [5]

CCC(C)n1c(=O)sc2cc(F)c(-n3ncc(C(F)(F)F)c(C)c3=O)cc21 (stereo not drawn) [Compound 2-328]
5: Herbicidal activity Entireleaf morningglory [1] | Herbicidal activity Velvetleaf [2] | Herbicidal activity Barnyardgrass [3] | Herbicidal activity Entireleaf morningglory [4] | Herbicidal activity Velvetleaf [5]

C#CCN1C(=O)COc2cc(F)c(-n3ncc(C(F)(F)F)c(C)c3=O)cc21 [Compound 2-251, 7-Fluoro-6-(4-methyl-5-trifluoromethyl-3-pyridazinon-2-yl)-4-propargyl-2H-1,4-benzoxazin-3-one]
5: Herbicidal activity Entireleaf morningglory [1] | Herbicidal activity Velvetleaf [2] | Herbicidal activity Barnyardgrass [6] | Herbicidal activity Entireleaf morningglory [7] | Herbicidal activity Velvetleaf [8] | Herbicidal activity Barnyardgrass [3] | Herbicidal activity Entireleaf morningglory [4] | Herbicidal activity Velvetleaf [5]

Cc1c(C(F)(F)F)cnn(-c2cc(NS(=O)(=O)CCl)c(Cl)cc2F)c1=O [Compound 1-369, N-{2-chloro-4-fluoro-5-(4-methyl-5-trifluoromethyl-3-pyridazinon-2-yl)phenyl}chloromethanesulfonamide]
5: Herbicidal activity Entireleaf morningglory [1] | Herbicidal activity Velvetleaf [2] | Herbicidal activity Barnyardgrass [6] | Herbicidal activity Entireleaf morningglory [7] | Herbicidal activity Velvetleaf [8] | Herbicidal activity Barnyardgrass [3] | Herbicidal activity Entireleaf morningglory [4] | Herbicidal activity Velvetleaf [5]

COC(=O)C1(C)Cc2c(c(Cl)cc(F)c2-n2ncc(C(F)(F)F)c(C)c2=O)O1 (stereo not drawn) [Compound 4-434]
5: Herbicidal activity Entireleaf morningglory [1] | Herbicidal activity Velvetleaf [2] | Herbicidal activity Barnyardgrass [6] | Herbicidal activity Entireleaf morningglory [7] | Herbicidal activity Velvetleaf [8] | Herbicidal activity Barnyardgrass [3] | Herbicidal activity Entireleaf morningglory [4] | Herbicidal activity Velvetleaf [5]

Cc1c(C(F)(F)F)cnn(-c2cc(O)c(Cl)cc2F)c1=O [Compound 1-391, 2-[2-fluoro-4-chloro-5-hydroxyphenyl]4-methyl-5-trifluoromethylpyridazin-3-one]
5: Herbicidal activity Entireleaf morningglory [1] | Herbicidal activity Velvetleaf [2] | Herbicidal activity Barnyardgrass [3] | Herbicidal activity Entireleaf morningglory [4] | Herbicidal activity Velvetleaf [5]

Cc1cc2c(-n3ncc(C(F)(F)F)c(C)c3=O)c(F)cc(Cl)c2o1 [Compound 3-139]
5: Herbicidal activity Barnyardgrass [3] | Herbicidal activity Entireleaf morningglory [4] | Herbicidal activity Velvetleaf [5]

Cc1c(C(F)(F)F)cnn(-c2c(F)cc(Cl)c3c2CC(C)(C)O3)c1=O [Compound 4-451]
5: Herbicidal activity Barnyardgrass [3] | Herbicidal activity Entireleaf morningglory [4] | Herbicidal activity Velvetleaf [5]
